Test system: plants
Assay: Test D post-emergence, other plants of Tables D2 and D4
Type: in vivo
Details: for ALOMY damage rating (100=total damage to plant; 0=no damage to plant) / AVEFA damage rating (100=total damage to plant; 0=no damage to plant) / BEAVA damage rating (100=total damage to plant; 0=no damage to plant) / BROTE damage rating (100=total damage to plant; 0=no damage to plant) / BRSNN damage rating (100=total damage to plant; 0=no damage to plant) / CHEAL damage rating (100=total damage to plant; 0=no damage to plant) / GALAP damage rating (100=total damage to plant; 0=no damage to plant) / HORVW damage rating (100=total damage to plant; 0=no damage to plant) / KCHSC damage rating (100=total damage to plant; 0=no damage to plant) / LOLPE damage rating (100=total damage to plant; 0=no damage to plant) / POAAN damage rating (100=total damage to plant; 0=no damage to plant) / POLCO damage rating (100=total damage to plant; 0=no damage to plant) / STEME damage rating (100=total damage to plant; 0=no damage to plant) / VERPE damage rating (100=total damage to plant; 0=no damage to plant): "Cereals" Postemergent, evaluated after 15 d; for damage to plant (100=total damage to plant; 0=no damage to plant), ABUTH / damage to plant (100=total damage to plant; 0=no damage to plant), AMARE / damage to plant (100=total damage to plant; 0=no damage to plant), BIDPI: post-emergence
How it was run: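 Damage was rated visually from 0 (none) to 100 (total), at 20 DAA for pre-emergence and 15 d for post-emergence. Plants grew from safener-treated seed in a glasshouse at 24/18° C. or 20/16° C. day/night, 65% humidity, watered twice daily.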

With `CCn1nc([C@@H]2CN(C)C(=O)[C@H]2C(=O)Nc2cccc(F)c2F)c2cccc(F)c21` [Compound 14] the “ALOMY damage rating (100=total damage to plant; 0=no damage to plant)” value (Rates 130) was 40, the “ALOMY damage rating (100=total damage to plant; 0=no damage to plant)” value (Rates 250) was 60 and the “ALOMY damage rating (100=total damage to plant; 0=no damage to plant)” value (Rates 500) was 70. For the same molecule, the “AVEFA damage rating (100=total damage to plant; 0=no damage to plant)” value (Rates 130) was 30, the “AVEFA damage rating (100=total damage to plant; 0=no damage to plant)” value (Rates 250) was 70 and the “AVEFA damage rating (100=total damage to plant; 0=no damage to plant)” value (Rates 500) was 80. For the same molecule, the “BEAVA damage rating (100=total damage to plant; 0=no damage to plant)” value (Rates 130) was 30, the “BEAVA damage rating (100=total damage to plant; 0=no damage to plant)” value (Rates 250) was 30 and the “BEAVA damage rating (100=total damage to plant; 0=no damage to plant)” value (Rates 500) was 20. The “BROTE damage rating (100=total damage to plant; 0=no damage to plant)” value (Rates 130) was 0, the “BROTE damage rating (100=total damage to plant; 0=no damage to plant)” value (Rates 250) was 10 and the “BROTE damage rating (100=total damage to plant; 0=no damage to plant)” value (Rates 500) was 30. For the same molecule, the “BRSNN damage rating (100=total damage to plant; 0=no damage to plant)” value (Rates 130) was 40, the “BRSNN damage rating (100=total damage to plant; 0=no damage to plant)” value (Rates 250) was 50 and the “BRSNN damage rating (100=total damage to plant; 0=no damage to plant)” value (Rates 500) was 40. For the same molecule, the “CHEAL damage rating (100=total damage to plant; 0=no damage to plant)” value (Rates 130) was 50, the “CHEAL damage rating (100=total damage to plant; 0=no damage to plant)” value (Rates 500) was 40 and the “GALAP damage rating (100=total damage to plant; 0=no damage to plant)” value (Rates 130) was 0. The “GALAP damage rating (100=total damage to plant; 0=no damage to plant)” value (Rates 250) was 10, the “GALAP damage rating (100=total damage to plant; 0=no damage to plant)” value (Rates 500) was 20 and the “HORVW damage rating (100=total damage to plant; 0=no damage to plant)” value (Rates 130) was 20. The “HORVW damage rating (100=total damage to plant; 0=no damage to plant)” value (Rates 250) was 70, the “HORVW damage rating (100=total damage to plant; 0=no damage to plant)” value (Rates 500) was 70 and the “KCHSC damage rating (100=total damage to plant; 0=no damage to plant)” value (Rates 130) was 10. For the same molecule, the “KCHSC damage rating (100=total damage to plant; 0=no damage to plant)” value (Rates 250) was 20, the “KCHSC damage rating (100=total damage to plant; 0=no damage to plant)” value (Rates 500) was 20 and the “LOLPE damage rating (100=total damage to plant; 0=no damage to plant)” value (Rates 130) was 0. The “LOLPE damage rating (100=total damage to plant; 0=no damage to plant)” value (Rates 250) was 20, the “LOLPE damage rating (100=total damage to plant; 0=no damage to plant)” value (Rates 500) was 50 and the “POAAN damage rating (100=total damage to plant; 0=no damage to plant)” value (Rates 130) was 80. The “POAAN damage rating (100=total damage to plant; 0=no damage to plant)” value (Rates 250) was 90, the “POAAN damage rating (100=total damage to plant; 0=no damage to plant)” value (Rates 500) was 90 and the “POLCO damage rating (100=total damage to plant; 0=no damage to plant)” value (Rates 130) was 20. For the same molecule, the “POLCO damage rating (100=total damage to plant; 0=no damage to plant)” value (Rates 250) was 30, the “POLCO damage rating (100=total damage to plant; 0=no damage to plant)” value (Rates 500) was 40 and the “STEME damage rating (100=total damage to plant; 0=no damage to plant)” value (Rates 250) was 50. The “STEME damage rating (100=total damage to plant; 0=no damage to plant)” value (Rates 500) was 70, the “VERPE damage rating (100=total damage to plant; 0=no damage to plant)” value (Rates 130) was 50 and the “VERPE damage rating (100=total damage to plant; 0=no damage to plant)” value (Rates 250) was 50. The “VERPE damage rating (100=total damage to plant; 0=no damage to plant)” value (Rates 500) was 60, the “damage to plant (100=total damage to plant; 0=no damage to plant), ABUTH” value (rate 130, evaluated after 15 d) was 0 and the “damage to plant (100=total damage to plant; 0=no damage to plant), ABUTH” value (rate 250, evaluated after 15 d) was 0. For the same molecule, the “damage to plant (100=total damage to plant; 0=no damage to plant), ABUTH” value (rate 500, evaluated after 15 d) was 10, the “damage to plant (100=total damage to plant; 0=no damage to plant), AMARE” value (rate 130, evaluated after 15 d) was 0 and the “damage to plant (100=total damage to plant; 0=no damage to plant), AMARE” value (rate 250, evaluated after 15 d) was 0. For the same molecule, the “damage to plant (100=total damage to plant; 0=no damage to plant), AMARE” value (rate 500, evaluated after 15 d) was 30, the “damage to plant (100=total damage to plant; 0=no damage to plant), BIDPI” value (rate 130, evaluated after 15 d) was 10 and the “damage to plant (100=total damage to plant; 0=no damage to plant), BIDPI” value (rate 250, evaluated after 15 d) was 20. The “damage to plant (100=total damage to plant; 0=no damage to plant), BIDPI” value (rate 500, evaluated after 15 d) was 30.

Reference: patent publication US20220281848A1, “PYRAZOLE-SUBSTITUTED PYRROLIDINONES AS HERBICIDES” (FMC Corporation, priority 2019, published 2022)
